Measurements: paper PMC9919861, “Homoleptic Complexes of Heterocyclic Curcuminoids with Mg(II) and Cu(II): First Conformationally Heteroleptic Case, Crystal Structures, and Biological Properties” (Molecules, 2023)
Read-outs that look alike come from different tables or passages of the source.

How the values were obtained:
[1] = test system: lipid peroxidation in rat brain homogenate; test: Inhibition of lipid peroxidation (TBARS) in rat brain homogenate, FeSO4-induced; assay type: biochemical; conditions: for Inhibition (%) of lipid peroxidation / TBARS / IC50: mean ± SEM, n = 3; for IC50: rat brain homogenate, TBARS
Description: Adult male Wistar rats (200–250 g) were provided by the Instituto de Fisiología Celular, Universidad Nacional Autónoma de México (UNAM). The procedures and care of animals were conducted in conformity with the Mexican Official Norm for Animal Care and Handling NOM-062-ZOO-1999. They were maintained at 23 ± 2 °C on a 12/12 h light-dark cycle with ad libitum access to food and water.
Animal sacrifice was carried out avoiding unnecessary pain. The rats were sacrificed with CO2. The cerebral tissue (whole brain) was rapidly dissected and homogenized in phosphate-buffered saline (PBS) solution (0.2 g of KCl, 0.2 g of KH2PO4, 8 g of NaCl, and 2.16 g of NaHPO4.7H2O/L, pH adjusted to 7.4) as described elsewhere to produce a 1/10 (w/v) homogenate. The homogenate was centrifuged at 800 rcf (relative centrifugal field) for 10 min. The supernatant protein content was measured using Folin and Ciocalteu’s phenol reagent and adjusted with PBS at 2.666 mg of protein/mL.
As an index of lipid peroxidation, TBARS levels were measured using rat brain homogenates according to the method described by Ng and co-workers, with some modifications. A supernatant (375 µL) was added with 50 µL of 20 µM EDTA and 25 µL of each sample concentration dissolved in DMSO (25 µL of DMSO for the control group) and incubated at 37 °C for 30 min. The lipid peroxidation was started adding 50 µL of freshly prepared 100 µM FeSO4 solution (final concentration 10 µM) and incubated at 37 °C for 1h. The TBARS measurements were obtained as described by Ohkawa and co-workers, with some modifications. To each tube 500 µL of TBA reagent (0.5% 2-thiobarbituric acid in 0.05 N NaOH and 30% trichloroacetic acid, in 1:1 ratio) was added and the final suspension was cooled on ice for 10 min, centrifuged at 13,400 rcf for 5 min and heated at 80 °C in a water bath for 30 min. After cooling at room temperature, the absorbance of 200 µL of supernatant was measured at λ = 540 nm in a Microplate Reader Synergy/HT BIOTEK Instrument, Inc., Winooski, VT, USA. The concentration of TBARS was calculated by interpolation on a standard curve of tetra-methoxypropane (TMP) as a precursor of MDA [38]. Results are expressed as n moles of TBARS per mg of protein. The inhibition ratio (IR [%]) was calculated using the formula IR = (C − E) × 100/C, where C is the control absorbance and E is the sample absorbance. Butylated hydroxytoluene (BHT) and α tocopherol were used as positive standards. All data are presented as mean ± standard error (SEM). The data were analyzed by one-way analysis of variance (ANOVA) followed by Dunnett’s test for comparison against a control. Values of p ≤ 0.05 (*) and p ≤ 0.01 (**) were considered statistically significant.

[2] = test system: SKLU-1 (human lung adenocarcinoma); test: Cytotoxicity, sulforhodamine B (SRB) microculture assay; assay type: cell-based; conditions: for inhibition at 25 µM: SK-LU-1, 25 μM, read-out: % of Inhibition (cytotoxic screening)
Description: (§1) The cytotoxicity of all compounds was tested against six cancer cell lines: U251 (human glioblastoma cell line), PC-3 (human prostate adenocarcinoma), K562 (human chronic myelogenous leukemia), HCT-15 (human colon adenocarcinoma), MCF-7 (human mammary adenocarcinoma), and SKLU-1 (human lung adenocarcinoma). Cell lines were supplied by the U.S. National Cancer Institute (NCI). The cell lines were cultured in an RPMI-1640 medium supplemented with 10% fetal bovine serum, […] L-glutamine, 10,000 units/mL penicillin G sodium, 10,000 µg/mL streptomycin sulfate, 25 µg/mL amphotericin B (Invitrogen/Gibco™, Thermo Fisher Scientific, Waltham, MA, USA), and 1% non-essential amino acids (Gibco). They were maintained at 37 °C in a humidified atmosphere with 5% CO2. […] The human tumor cytotoxicity was determined using the protein-binding dye sulforhodamine B (SRB) in a microculture assay to measure cell growth, as described in the protocols established by the NCI [39, 40, 41].

[3] = test system: HCT-15 (human colon adenocarcinoma); test: as above; assay type: cell-based; conditions: for inhibition at 25 µM: Homo sapiens, read-out: % of Inhibition (cytotoxic screening)
Description: as §1

[4] = test system: MCF-7 (human mammary adenocarcinoma); test: as above; assay type: cell-based; conditions: for inhibition at 25 µM: Homo sapiens, MCF7, 25 μM, read-out: % of Inhibition (cytotoxic screening)
Description: as §1

[5] = test system: PC-3 (human prostate adenocarcinoma); test: as above; assay type: cell-based; conditions: for inhibition at 25 µM: read-out: % of Inhibition (cytotoxic screening)
Description: as §1

[6] = test system: K562 (human chronic myelogenous leukemia); test: as above; assay type: cell-based; conditions: for inhibition at 25 µM: Homo sapiens, read-out: % of Inhibition (cytotoxic screening)
Description: as §1

[7] = test system: U251 (human glioblastoma cell line); test: as above; assay type: cell-based; conditions: for inhibition at 25 µM: U-251, 25 μM, read-out: % of Inhibition (cytotoxic screening)
Description: as §1

[8] = test system: healthy monkey kidney cell line (COS-7); test: Cytotoxicity towards healthy cell line; assay type: cell-based; conditions: COS7
[9] = Cytotoxicity towards healthy cell line; assay type: cell-based, monkey; conditions: monkey, COS-7 kidney cells; COS7; 25 μM; read-out: % of Inhibition (cytotoxic screening)
[10] = concentration 1 (unit not given)
[11] = concentration 10 (unit not given)
[12] = concentration 100 (unit not given)

Compound | % of Inhibition (lipoperoxidation screening) [1, 10] [%] | % of Inhibition (lipoperoxidation screening) [1, 11] [%] | % of Inhibition (lipoperoxidation screening) [1, 12] [%] | % of Inhibition (cytotoxic screening) ([2]; 25 μM) [%] | % of Inhibition (cytotoxic screening) ([4]; 25 μM) [%] | % of Inhibition (cytotoxic screening) ([5]; 25 μM) [%] | % of Inhibition (cytotoxic screening) ([6]; 25 μM) [%] | % of Inhibition (cytotoxic screening) ([7]; 25 μM) [%] | % of Inhibition (cytotoxic screening) ([8]; 25 μM) [%] | Inhibition (%) of lipid peroxidation ([1]; 17.78 μM) [%] | TBARS ([1]; 17.78 μM) [nmol/mg prot.] | Inhibition (%) of lipid peroxidation ([1]; 31.62 μM) [%] | TBARS ([1]; 31.62 μM) [nmol/mg prot.] | Inhibition (%) of lipid peroxidation ([1]; 56.23 μM) [%] | TBARS ([1]; 56.23 μM) [nmol/mg prot.] | IC50 [1] [µM] | inhibition at 25 µM ([2]; Homo sapiens) [%] | inhibition at 25 µM ([3]; 25 μM) [%] | inhibition at 25 µM [4] [%] | inhibition at 25 µM ([5]; Homo sapiens, 25 μM) [%] | other results
Cn1cccc1/C=C/C(=O)C=C([O-])/C=C/c1cccn1C.Cn1cccc1/C=C/C(=O)C=C([O-])/C=C/c1cccn1C.[Cu+2] [N-methyl-pyrCurc-Cu] | −7.20 | 38.48 | 71.20 | 100 | 100 | 64.99 | 74.67 | 71.62 | 100 |  |  |  |  |  |  |  |  |  |  |  | IC50 [2]: 10.3 ± 1 µM; IC50 [3]: 12.9 ± 2.1 µM; % of Inhibition (cytotoxic screening) ([3]; 25 μM): 100%; IC50 [4]: 10.8 ± 1.7 µM; IC50 [6]: 5.9 ± 1.5 µM; IC50 [7]: 10.6 ± 1 µM
O=C(/C=C(O)/C=C/c1cccs1)/C=C/c1cccs1 [ThiopheneCurc, Thiophenecurcumin] | 0.23 | 25.43 | 51.90 |  |  |  |  |  |  | 40.94 ± 0.36 | 3.157 ± 0.139 | 61.81 ± 1.08 | 2.042 ± 0.116 | 71.25 ± 1.79 | 1.528 ± 0.035 | 22.02 ± 0.15 | 0 | 0 | 13.4 | 14.8 | Inhibition (%) of lipid peroxidation ([1]; 10 μM): 17.68 ± 0.97%; TBARS ([1]; 10 μM): 4.398 ± 0.177 nmol/mg prot.; Inhibition (%) of lipid peroxidation ([1]; 100 μM): 73.06 ± 3.06%; TBARS ([1]; 100 μM): 1.425 ± 0.094 nmol/mg prot.; Inhibition (%) of lipid peroxidation ([1]; 177.83 μM): 66.63 ± 3.83%; TBARS ([1]; 177.83 μM): 1.766 ± 0.119 nmol/mg prot.; inhibition at 25 µM ([6]; 25 μM): 4.4%; inhibition at 25 µM ([7]; Homo sapiens): 0%; inhibition at 25 µM [9]: 0%
O=C(/C=C(O)/C=C/c1ccco1)/C=C/c1ccco1 [FuranCurc, Furancurcumin] | −6.24 | 1.59 | 93.46 |  |  |  |  |  |  | 13.14 ± 5.84 | 8.634 ± 0.462 | 48.97 ± 13.11 | 5.091 ± 1.356 | 81.06 ± 1.43 | 1.891±0.178 | 33.9 ± 4.65 | 0 | 0 | 0 | 10.8 | Inhibition (%) of lipid peroxidation ([1]; 13.34 μM): 5.6 ± 5.31%; TBARS ([1]; 13.34 μM): 9.385 ± 0.416 nmol/mg prot.; Inhibition (%) of lipid peroxidation ([1]; 23.71 μM): 25.93 ± 9.98%; TBARS ([1]; 23.71 μM): 7.356 ± 0.928 nmol/mg prot.; Inhibition (%) of lipid peroxidation ([1]; 42.17 μM): 64.24 ± 10.44%; TBARS ([1]; 42.17 μM): 3.590±1.114 nmol/mg prot.; Inhibition (%) of lipid peroxidation ([1]; 74.13 μM): 88.25 ± 1.57%; TBARS ([1]; 74.13 μM): 1.167±0.148 nmol/mg prot.; IC50 ([2]; Homo sapiens, SK-LU-1): 15.5 ± 2 µM; IC50 ([5]; Homo sapiens): 35.9 ± 3.9 µM; inhibition at 25 µM ([6]; 25 μM): 6.4%; IC50 ([7]; Homo sapiens, U-251): 11.7 ± 2.9 µM; inhibition at 25 µM ([7]; Homo sapiens): 0%; inhibition at 25 µM [9]: 46.2%
O=C(C=C([O-])/C=C/c1ccco1)/C=C/c1ccco1.O=C(C=C([O-])/C=C/c1ccco1)/C=C/c1ccco1.[Cu+2] [FuranCurc-Cu] | 0.83 | 27.46 | 88.94 | 95.0 | 92.8 | 100 | 90.1 | 100 | 100 |  |  |  |  |  |  |  |  |  |  |  | IC50 [2]: 6.5 ± 0.2 µM; % of Inhibition (cytotoxic screening) ([3]; 25 μM): 72.4%; IC50 [5]: 3 ± 0.1 µM; IC50 [7]: 4 ± 0.3 µM
COc1cc(/C=C/C(=O)CC(=O)/C=C/c2ccc(O)c(OC)c2)ccc1O [Curc, Curcumin] |  |  |  |  |  |  |  |  |  |  |  |  |  |  |  |  | 94.5 | 80 | 82.4 | 94.4 | inhibition at 25 µM ([6]; 25 μM): 80.1%; inhibition at 25 µM ([7]; Homo sapiens): 67.1%; inhibition at 25 µM [9]: 71.6%
Cn1cccc1/C=C/C(=O)C=C([O-])/C=C/c1cccn1C.Cn1cccc1/C=C/C(=O)C=C([O-])/C=C/c1cccn1C.[Mg+2] [N-methyl-pyrCurc-Mg] | −4.22 | 12.24 | 69.70 |  |  |  |  |  |  |  |  |  |  |  |  |  |  |  |  |  | % of Inhibition (cytotoxic screening) ([2]; 12.5 μM): 18.1%; % of Inhibition (cytotoxic screening) ([3]; 12.5 μM): 15.8%; % of Inhibition (cytotoxic screening) ([4]; 12.5 μM): 35.7%; % of Inhibition (cytotoxic screening) ([5]; 12.5 μM): 1.4%; % of Inhibition (cytotoxic screening) ([6]; 12.5 μM): 28.8%; % of Inhibition (cytotoxic screening) ([7]; 12.5 μM): 19.5%; % of Inhibition (cytotoxic screening) ([8]; 12.5 μM): 23.4%
O=C(C=C([O-])/C=C/c1cccs1)/C=C/c1cccs1.O=C(C=C([O-])/C=C/c1cccs1)/C=C/c1cccs1.[Cu+2] [ThiopheneCurc-Cu] | 5.67 | 51.00 | 53.96 | 91.0 | 57.9 | 63.6 | 84.4 | 58.2 | 0 | 57.25 ± 1.19 | 2.280 ± 0.052 | 55.9 ± 1.51 | 2.351 ± 0.046 | 58.14 ± 2.66 | 2.225 ± 0.055 | 10.3 ± 0.59 |  |  |  |  | Inhibition (%) of lipid peroxidation ([1]; 3.16 μM): 12.51 ± 3.57%; TBARS ([1]; 3.16 μM): 4.665 ± 0.144 nmol/mg prot.; Inhibition (%) of lipid peroxidation ([1]; 5.62 μM): 31.7 ± 2.33%; TBARS ([1]; 5.62 μM): 3.651 ± 0.200 nmol/mg prot.; Inhibition (%) of lipid peroxidation ([1]; 10 μM): 49.46 ± 1.96%; TBARS ([1]; 10 μM): 2.693 ± 0.029 nmol/mg prot.; IC50 [6]: 38.6 ± 8.1 µM
